Target: T1, activated human C1s (Homo sapiens, UniProt P09871)
T1 construct: purchased Calbiochem (La Jolla, Calif.)
T1 sequence (P09871 438-688 limits assumed): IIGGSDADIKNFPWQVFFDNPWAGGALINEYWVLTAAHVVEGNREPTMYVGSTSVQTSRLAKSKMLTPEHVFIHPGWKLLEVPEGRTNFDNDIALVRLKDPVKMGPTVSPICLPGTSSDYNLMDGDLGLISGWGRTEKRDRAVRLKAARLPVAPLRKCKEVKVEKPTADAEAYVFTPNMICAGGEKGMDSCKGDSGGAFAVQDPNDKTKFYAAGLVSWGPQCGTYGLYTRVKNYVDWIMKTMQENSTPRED
T1 sequence (P09871 16-437 partner limits assumed): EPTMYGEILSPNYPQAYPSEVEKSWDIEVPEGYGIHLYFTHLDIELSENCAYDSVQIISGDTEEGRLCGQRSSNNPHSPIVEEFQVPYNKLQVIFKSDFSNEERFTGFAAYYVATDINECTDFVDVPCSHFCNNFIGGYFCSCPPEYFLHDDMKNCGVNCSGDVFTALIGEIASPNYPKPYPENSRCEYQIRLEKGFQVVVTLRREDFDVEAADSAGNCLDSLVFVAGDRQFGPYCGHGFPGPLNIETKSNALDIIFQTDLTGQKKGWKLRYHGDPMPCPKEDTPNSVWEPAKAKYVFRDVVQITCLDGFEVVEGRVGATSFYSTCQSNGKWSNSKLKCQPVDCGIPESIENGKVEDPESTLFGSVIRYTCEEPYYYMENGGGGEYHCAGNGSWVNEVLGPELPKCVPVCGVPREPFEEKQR
Test: In vitro inhibition of C1s: Ki determination, C1s-catalyzed hydrolysis of Z-Gly-Arg-S-Bzl detected with DTNB
Assay type: biochemical
Details: purified activated human C1s 2.3 nM, Z-Gly-Arg-S-Bzl 45 μM, DTNB 200 μM, pH 7.5, 37° C., absorbance at 405 nm
Procedure: Reagents: All buffer salts were obtained from Sigma Chemical Company (St. Louis, Mo.), and were of the highest purity available. DTNB was purchased from Pierce (Rockford, Ill.). Z-Gly-Arg-S-Bzl was purchased from Enzyme Systems Products (Livermore, Calif.). Activated human C1s was purchased from Calbiochem (La Jolla, Calif.).
Test compounds are prepared as a 10 μM solution in DMSO. Dilutions are prepared in DMSO yielding 7 final concentrations encompassing a 700-fold concentration range.
Reactions were initiated by the addition of a 10 μL aliquot of the enzyme, and the absorbance increase at 405 nm is continuously recorded for 15 minutes in a Molecular Devices plate reader. Final DMSO concentration was 4.3%. […] The ratio of the velocity (rate of change in absorbance as a function of time) for a sample containing no test compound is divided by the velocity of a sample containing test compound, and is plotted as a function of test compound concentration. The data are fit to a linear regression, and the value of the slope of the line calculated. The inverse of the slope is the experimentally determined Ki value.

Ki, 6 to 23 nM:
CSc1sc(C(=N)N)cc1S(=O)(=O)c1cccc(-c2c(C)cc(NC(=N)N)cc2NC(=O)NCCCCCC(=O)O)c1 [Example 259]
CSc1sc(C(=N)N)cc1S(=O)(=O)c1cccc(-c2ccsc2)c1 [Example 77, 5-Methylsulfanyl-4-(3-thiophen-3-yl-benzenesulfonyl)-thiophene-2-carboxamidine]
CSc1sc(C(=N)NC(=O)OC(C)(C)C)cc1S(=O)(=O)c1cccc(-c2ccc(S(C)(=O)=O)cc2)c1 [Example 57, {Imino-[4-(4′-methanesulfonyl-biphenyl-3-sulfonyl)-5-methylsulfanyl-thiophen-2-yl]-methyl}-carbamic acid tert-butyl ester]
